In brackets after ≈: the same amount, converted by molar mass. Counter-ions that a name gives are not always drawn.
Columns and labels:
Staphylococcus aureus = experiment: in vivo antibacterial activity, mice infected intraperitoneally, oral dosing; conditions: oral at infection and 4 hours later, Reed-Muench, mortality, read-out: In-Vivo ED50, S. aureus
Protocol: (§1) The in vivo antibacterial activity of the compounds was determined as follows.
(§2) Cultures of Staphylococcus aureus or Escherichia coli were grown from stored frozen stocks in trypticase soy broth (BBL), a standard bacteriological growth medium, with shaking until a turbidity of optical density (650μ) of 0.4-0.5 was attained. These cultures were centrifuged and resuspended in either 50% hog gastric mucin for Staphyloccus aureus or saline for Escherichia coli. These suspensions were injected intraperitoneally at dilutions calculated to cause 90-100% mortality within 7 days of the mice of the control groups.
(§3) The compounds were suspended or dissolved in 0.25% Methocel, 15 CPS, at various concentrations. Mice were dosed orally by intubation at the time of infection and again four hours later. Mortality was recorded daily until test termination. The estimated dose 50 (ED50) was calculated by the Reed-Muench method, as described in Reed, L. J. and Muench, H., American Journal of Hygiene, 27, 493-497 (1938), the disclosure of which is herein incorporated by reference.

Escherichia coli = experiment: as above; conditions: oral at infection and 4 hours later, Reed-Muench, mortality, read-out: In-Vivo ED50, E. coli
Protocol: as §1, §2, §3

[1] = system: Staphylococcus epidermidis; experiment: 24-hour minimum inhibitory concentration, microdilution method, Mueller-Hinton broth; assay type: cell-based; conditions: S. epidermidis, read-out: In-Vitro MIC
Protocol: The compounds listed below in Table 1 were tested for in vivo and in vitro antibacterial activity. The twenty-four hour minimum inhibitory in vitro concentrations (MIC) for a test strain of Staphylococcus epidermidis of the compounds were determined using a standard microdilution method with Mueller-Hinton broth. This method is described in Conrath, Theodore B., 1972 Handbook of Microtiter Procedures, Dynatech Corporation, Cambridge, Mass., the disclosure of which is herein incorporated by reference. | ^1 24Hour minimum inhibitory concentration: determined by | microdilution method with S. epidermidis as the test organism.

anaerobic bacteria = experiment: inhibitory activity for anaerobic bacteria, agar dilution; assay type: cell-based; conditions: in words, from Table 3
Protocol: (§4) The inhibitory activity for anaerobic bacteria of 5-chloromethyl-3-(4-difluoromethylsulfonyl)phenyl-2-oxazolidinone and (1)-5-hydroxymethyl-3-(4-methylsulfonyl)phenyl-2-oxazolidinone was determined using the agar dilution method described in Barry, Arthur L., The Antimicrobic Susceptibility Test: Principles and Practices, 1976 Lea & Febiger, Philadelphia.

Bacteroides sp. = experiment: in-vitro susceptibility of anaerobic clinical isolates, agar dilution; assay type: cell-based; conditions: 48-hour, 32 isolates (chloromethyl compound), 28 isolates (hydroxymethyl compound)
Protocol: as §4
(§5) ^1 48hour minimum inhibitory concentration determined by agar dilutio

Clostridium sp. = experiment: as above; assay type: cell-based; conditions: 48-hour, 4 isolates tested for each compound
Protocol: as §4, §5

Fusobacterium sp. = experiment: as above; assay type: cell-based; conditions: 48-hour, 4 isolates tested for each compound
Protocol: as §4, §5

Gram positive cocci = experiment: as above; assay type: cell-based; conditions: 48-hour, 7 isolates tested for each compound
Protocol: as §4, §5

Staphylococci sp. = experiment: in-vitro susceptibility of clinical isolates, agar dilution; assay type: cell-based; conditions: 24-hour, 35° C., 37 isolates
Protocol: (§6) The in-vitro antibacterial activity spectrum of (1)-5-Hydroxymethyl-3-(4-methylsulfonyl)phenyl-2-oxazolidinone, determined by an agar dilution procedure, is shown in table 2. This procedure is known in the art and can be summarized as follows. […] The agar plates were inoculated with a 0.001 ml calibrated loopful of bacterial inoculum diluted to contain 5×10^6 colony forming units (CFU) per ml. […] The test organisms included clinical bacterial isolates representing two gram positive and nine gram negative genera.
(§7) ^1 MIC: Minimum Inhibitory Concentration determined by agar dilution

Klebsiella sp. = experiment: as above; assay type: cell-based; conditions: 24-hour, 35° C., 68 isolates
Protocol: as §6, §7

Serratia sp. = experiment: as above; assay type: cell-based; conditions: 24-hour, 35° C., 44 isolates
Protocol: as §6, §7

Streptococci sp. = experiment: as above; assay type: cell-based; conditions: 24-hour, 35° C., 12 isolates
Protocol: as §6, §7

Shigella sp. = experiment: as above; assay type: cell-based; conditions: 24-hour, 35° C., 9 isolates
Protocol: as §6, §7

Neisseria sp. = experiment: as above; assay type: cell-based; conditions: 24-hour, 35° C., 42 isolates
Protocol: as §6, §7

Salmonella sp. = experiment: as above; assay type: cell-based; conditions: 24-hour, 35° C., 6 isolates
Protocol: as §6, §7

Proteus sp. = experiment: as above; assay type: cell-based; conditions: 24-hour, 35° C., 88 isolates
Protocol: as §6, §7

Providencia sp. = experiment: as above; assay type: cell-based; conditions: 24-hour, 35° C., 12 isolates
Protocol: as §6, §7

Pseudomonas sp. = experiment: as above; assay type: cell-based; conditions: 24-hour, 35° C., 78 isolates
Protocol: as §6, §7

E. coli = experiment: as above; assay type: cell-based; conditions: Escherichia coli, 24-hour, 35° C., 86 isolates
Protocol: as §6, §7

Hemophilus influenzae = experiment: as above; assay type: cell-based; conditions: Haemophilus influenzae, 24-hour, 35° C., 4 isolates
Protocol: as §6, §7

Enterobacter sp. = experiment: as above; assay type: cell-based; conditions: 24-hour, 35° C., 41 isolates
Protocol: as §6, §7

Q: For `CS(=O)(=O)c1ccc(N2CC(CO)OC2=O)cc1` (racemic) [5-Hydroxymethyl-3-(4-methylsulfonylphenyl)-2-oxazolidinone], which ED50 (Staphylococcus aureus) is on record?
A: 18 mg/kg

Q: What about the ED50 (Escherichia coli) of the same molecule?
A: 40 mg/kg

Q: And the MIC [1]?
A: 12.5 µg/mL (≈ 46.1 µM)

Q: How did the ED50 (Staphylococcus aureus) turn out when `CS(=O)(=O)c1ccc(N2CC(COC(=O)CCC(=O)O)OC2=O)cc1` (racemic) [(dl)-3-(4-Methylsulfonylphenyl)-2-oxooxazolidin-5-ylmethyl 1,4-Butanedioic Acid Mono Ester, Mono Sodium Salt] was run?
A: 26 mg/kg

Q: And the ED50 (Escherichia coli)?
A: 40 mg/kg

Q: And the MIC [1]?
A: > 50 µg/mL

Q: With `CS(=O)(=O)c1ccc(N2CC(COC(=O)CCC(=O)O)OC2=O)cc1` (single isomer, unassigned) [l-3-(4-Methylsulfonylphenyl)-2-oxooxazolidin-5-ylmethyl 1,4-Butanediodic Acid Mono Ester, Mono Sodium Salt] as the molecule, how does the ED50 (Staphylococcus aureus) read?
A: 20 mg/kg

Q: Which results are given for `C[C@H](N)C(=O)OCC1CN(c2ccc(S(C)(=O)=O)cc2)C(=O)O1` (stereo partly drawn) [5-(L)-Alanyloxymethyl-(1)-3-(4-methylsulfonyl)phenyl-2-oxazolidinone trifluoroacetic acid salt]?
A: ED50 (Staphylococcus aureus): 14 mg/kg; MIC [1]: 25 µg/mL

Q: What does the source list for `CC(=O)OCC1CN(c2ccc(S(C)(=O)=O)cc2)C(=O)O1` (stereo not drawn) [5-Acetoxymethyl-3-(4-methylsulfonyl)phenyl-2-oxazolidinone]?
A: ED50 (Staphylococcus aureus): 100 mg/kg; MIC [1]: > 50 µg/mL

Q: With `CS(=O)(=O)c1ccc(N2CC(CBr)OC2=O)cc1` (stereo not drawn) [5-Bromomethyl-3-(4-methylsulfonyl)phenyl-2-oxazolidinone] as the molecule, how does the MIC [1] read?
A: 5 µg/mL (≈ 15 µM)

Q: What does the source list for `O=C1OC(CCl)CN1c1ccc(S(=O)(=O)C(F)F)cc1` (stereo not drawn) [5-Chloromethyl-3-(4-difluoromethylsulfonylphenyl)-2-oxazolidinone]?
A: inhibition of anaerobic bacterial growth (anaerobic bacteria): potent inhibitors of anaerobic bacterial growth; MIC (Bacteroides sp.): 1.8 µg/mL (≈ 5.53 µM); MIC (Clostridium sp.): 1 µg/mL (≈ 3.07 µM); MIC (Fusobacterium sp.): 0.06 µg/mL (≈ 0.184 µM); MIC (Gram positive cocci): 0.7 µg/mL (≈ 2.15 µM); ED50 (Staphylococcus aureus): 20 mg/kg; MIC [1]: 2.5 µg/mL (≈ 7.68 µM)

Q: For `CS(=O)(=O)c1ccc(N2CC(CCl)OC2=O)cc1` (stereo not drawn) [5-Chloromethyl-3-(4-methylsulfonylphenyl)-2-oxazolidinone], which ED50 (Staphylococcus aureus) is on record?
A: 29 mg/kg

Q: What about the ED50 (Escherichia coli) of the same molecule?
A: 63 mg/kg

Q: What about the MIC [1] of the same molecule?
A: 5 µg/mL (≈ 17.3 µM)

Q: With `O=C1OC(CCl)CN1c1ccc(S(=O)(=O)C(F)(F)F)cc1` (stereo not drawn) [5-Chloromethyl-3-(4-trifluoromethylsulfonylphenyl)-2-oxazolidinone] as the molecule, how does the ED50 (Staphylococcus aureus) read?
A: 105 mg/kg

Q: What about the MIC [1] of the same molecule?
A: 4.7 µg/mL (≈ 13.7 µM)

Q: `O=C1OC(CCl)CN1c1ccc(S(=O)(=O)C(F)(F)C(F)F)cc1` (stereo not drawn) [5-Chloromethyl-3-[4-(1,1,2,2-tetrafluoroethylsulfonyl)phenyl]-2-oxazolidinone] was tested. Which ED50 (Staphylococcus aureus) did it give?
A: 92 mg/kg

Q: What about the MIC [1] of the same molecule?
A: 10 µg/mL (≈ 26.6 µM)

Q: `CS(=O)(=O)c1ccc(N2CC(CF)OC2=O)cc1` (stereo not drawn) [5-Fluoromethyl-3-(4-methylsulfonyl)phenyl-2-oxazolidinone] was tested. Which ED50 (Staphylococcus aureus) did it give?
A: 35 mg/kg

Q: What about the MIC [1] of the same molecule?
A: 20 µg/mL (≈ 73.2 µM)

Q: `O=C1OC(CO)CN1c1ccc(S(=O)(=O)C(F)F)cc1` (stereo not drawn) [5-Hydroxymethyl-3-(4-difluoromethylsulfonylphenyl)-2-oxazolidinone] was tested. Which ED50 (Staphylococcus aureus) did it give?
A: 23 mg/kg

Q: And the ED50 (Escherichia coli)?
A: 27 mg/kg

Q: And the MIC [1]?
A: 3.1 µg/mL (≈ 10.1 µM)

Q: For `C[S+]([O-])c1ccc(N2CC(CO)OC2=O)cc1` (stereo not drawn) [5-Hydroxymethyl-3-(4-methylsulfinylphenyl)-2-oxazolidinone], which ED50 (Staphylococcus aureus) is on record?
A: 27 mg/kg

Q: And the MIC [1]?
A: 50 µg/mL (≈ 196 µM)

Q: With `O=C1OC(CO)CN1c1ccc(S(=O)(=O)C(F)(F)F)cc1` (stereo not drawn) [5-Hydroxymethyl-3-(4-trifluoromethylsulfonylphenyl)-2-oxazolidinone] as the molecule, how does the ED50 (Staphylococcus aureus) read?
A: 20 mg/kg

Q: And the MIC [1]?
A: 12.5 µg/mL (≈ 38.4 µM)

Q: `O=C1OC(CO)CN1c1ccc(S(=O)(=O)C(F)(F)C(F)F)cc1` (stereo not drawn) [5-Hydroxymethyl-3-[4-(1,1,2,2-tetrafluoroethylsulfonyl)phenyl]-2-oxazolidinone] was tested. Which ED50 (Staphylococcus aureus) did it give?
A: 108 mg/kg

Q: And the MIC [1]?
A: 12.5 µg/mL (≈ 35 µM)

Q: `CCS(=O)(=O)c1ccc(N2CC(CCl)OC2=O)cc1` (stereo not drawn) [5-chloromethyl-3-(4-ethylsulfonyl)phenyl-2-oxazolidinone] was tested. Which MIC [1] did it give?
A: 50 µg/mL (≈ 165 µM)

Q: `C[S+]([O-])c1ccc(N2CC(CCl)OC2=O)cc1` (stereo not drawn) [5-chloromethyl-3-(4-methylsulfinyl)phenyl-2-oxazolidinone] was tested. Which MIC [1] did it give?
A: 25 µg/mL (≈ 91.3 µM)

Q: With `CS(=O)(=O)c1ccc(N2C[C@H](CO)OC2=O)cc1` [R-(-)-3-(4-Methylsulfonylphenyl)-5-hydroxymethyl-2-oxazolidinone] as the molecule, how does the “inhibition of anaerobic bacterial growth” value (anaerobic bacteria) read?
A: potent inhibitors of anaerobic bacterial growth

Q: And the MIC (Bacteroides sp.)?
A: 3.4 µg/mL (≈ 12.5 µM)

Q: What about the MIC (Clostridium sp.) of the same molecule?
A: 7 µg/mL (≈ 25.8 µM)

Q: What about the MIC (Fusobacterium sp.) of the same molecule?
A: 0.3 µg/mL (≈ 1.11 µM)

Q: What about the MIC (Gram positive cocci) of the same molecule?
A: 1.3 µg/mL (≈ 4.79 µM)

Q: What about the ED50 (Staphylococcus aureus) of the same molecule?
A: 9 mg/kg

Q: And the ED50 (Escherichia coli)?
A: 25 mg/kg

Q: And the MIC [1]?
A: 12.5 µg/mL (≈ 46.1 µM)

Q: What about the MIC (Staphylococci sp.) of the same molecule?
A: 3.8 µg/mL (≈ 14 µM)

Q: What about the MIC (Klebsiella sp.) of the same molecule?
A: 37.5 µg/mL (≈ 138 µM)

Q: What about the MIC (Serratia sp.) of the same molecule?
A: ≥ 108 µg/mL

Q: What about the MIC (Streptococci sp.) of the same molecule?
A: 3.7 µg/mL (≈ 13.6 µM)

Q: What about the MIC (Shigella sp.) of the same molecule?
A: 11.6 µg/mL (≈ 42.8 µM)

Q: What about the MIC (Neisseria sp.) of the same molecule?
A: 10.5 µg/mL (≈ 38.7 µM)

Q: And the MIC (Salmonella sp.)?
A: 16 µg/mL (≈ 59 µM)

Q: What about the MIC (Proteus sp.) of the same molecule?
A: 21.7 µg/mL (≈ 80 µM)

Q: What about the MIC (Providencia sp.) of the same molecule?
A: 26.7 µg/mL (≈ 98.4 µM)

Q: What about the MIC (Pseudomonas sp.) of the same molecule?
A: ≥ 128 µg/mL

Q: And the MIC (E. coli)?
A: 21.7 µg/mL (≈ 80 µM)

Q: What about the MIC (Hemophilus influenzae) of the same molecule?
A: 16 µg/mL (≈ 59 µM)

Q: What about the MIC (Enterobacter sp.) of the same molecule?
A: 37.9 µg/mL (≈ 140 µM)

— US4340606A, “3-(p-Alkylsulfonylphenyl)oxazolidinone derivatives as antibacterial agents” (E. I. Du Pont de Nemours and Company, priority 1980, dated 1982)
